Experimental data reported in patent publication US6426369B1, “Oxethazaine as antimicrobial agent” (Eisai Co., Ltd., priority 1997, dated 2002).

Test system: H. pylori
Test: Antimicrobial activity test 6: oxethazaine in combination with an antibiotic (AMPC, CAM, RXM), checker board method
Type: cell-based, Helicobacter pylori
Design: key to growth of H. pylori: “−” indicates the inhibited growth of H. pylori (presence of antimicrobial activity); “+” indicates the growth of H. pylori (absence of antimicrobial activity)
Source text: The effect of combined use with amoxicillin (AMPC), clarithromycin (CAM) or roxithromycin (RXM) was examined in the same manner as in antimicrobial activity test 1, using the checker board method.

[1] = combined use with oxethazaine, out of 15 strains (AMPC), 21 strains (CAM), 22 strains (RXM)

CC[C@H]1OC(=O)[C@H](C)[C@@H](O[C@H]2C[C@@](C)(OC)[C@@H](O)[C@H](C)O2)[C@H](C)[C@@H](O[C@@H]2O[C@H](C)C[C@H](N(C)C)[C@H]2O)[C@](C)(OC)C[C@@H](C)C(=O)[C@H](C)[C@@H](O)[C@]1(C)O [clarithromycin]
17 strains/: additive effect, number of strains [1]
+: growth of H. pylori (89-355, oxethazaine 0 + CAM 0.006 μg/ml) | growth of H. pylori (89-355, oxethazaine 0 + CAM 0.012 μg/ml) | growth of H. pylori (89-355, oxethazaine 0 + CAM 0.024 μg/ml) | growth of H. pylori (89-355, oxethazaine 0 + CAM 0.05 μg/ml) | growth of H. pylori (89-357, oxethazaine 0 + CAM 0.006 μg/ml) | growth of H. pylori (89-357, oxethazaine 0 + CAM 0.012 μg/ml) | growth of H. pylori (89-357, oxethazaine 0 + CAM 0.024 μg/ml) | growth of H. pylori (90-388, oxethazaine 0 + CAM 0.006 μg/ml) | growth of H. pylori (90-388, oxethazaine 0 + CAM 0.012 μg/ml) | growth of H. pylori (90-388, oxethazaine 0 + CAM 0.024 μg/ml) | growth of H. pylori (90-388, oxethazaine 0 + CAM 0.05 μg/ml) | growth of H. pylori (90-390, oxethazaine 0 + CAM 0.006 μg/ml) | growth of H. pylori (90-390, oxethazaine 0 + CAM 0.012 μg/ml) | growth of H. pylori (90-390, oxethazaine 0 + CAM 0.024 μg/ml) | growth of H. pylori (90-390, oxethazaine 0 + CAM 0.05 μg/ml) | growth of H. pylori (EH 12, oxethazaine 0 + CAM 0.006 μg/ml) | growth of H. pylori (EH 12, oxethazaine 0 + CAM 0.012 μg/ml) | growth of H. pylori (EH 12, oxethazaine 0 + CAM 0.024 μg/ml) | growth of H. pylori (EH 13, oxethazaine 0 + CAM 0.006 μg/ml) | growth of H. pylori (EH 13, oxethazaine 0 + CAM 0.012 μg/ml) | growth of H. pylori (strain 90-397, CAM 0.006 μg/ml, oxethazaine μg/ml: 100, 50, 25, 12.5, 6.25, 3.13, 0) | growth of H. pylori (strain 90-397, CAM 0.012 μg/ml, oxethazaine μg/ml: 100, 50, 25, 12.5, 6.25, 3.13, 0) | growth of H. pylori (strain 90-397, CAM 0.024 μg/ml, oxethazaine μg/ml: 100, 50, 25, 12.5, 6.25, 3.13, 0) | growth of H. pylori (strain 90-397, CAM 0.05 μg/ml, oxethazaine μg/ml: 100, 50, 25, 12.5, 6.25, 3.13, 0) | growth of H. pylori (strain 90-397, CAM 0.1 μg/ml, oxethazaine μg/ml: 100, 50, 25, 12.5, 6.25, 3.13, 0) | growth of H. pylori (strain 90-397, CAM 0.2 μg/ml, oxethazaine μg/ml: 100, 50, 25, 12.5, 6.25, 3.13, 0)
−: growth of H. pylori (89-355, oxethazaine 0 + CAM 0.1 μg/ml) | growth of H. pylori (89-355, oxethazaine 0 + CAM 0.2 μg/ml) | growth of H. pylori (89-355, oxethazaine 0 + CAM 0.4 μg/ml) | growth of H. pylori (89-355, oxethazaine 0 + CAM 0.8 μg/ml) | growth of H. pylori (89-355, oxethazaine 0 + CAM 1.56 μg/ml) | growth of H. pylori (89-355, oxethazaine 0 + CAM 3.13 μg/ml) | growth of H. pylori (89-355, oxethazaine 0 + CAM 6.25 μg/ml) | growth of H. pylori (89-355, oxethazaine 0 + CAM 12.5 μg/ml) | growth of H. pylori (89-355, oxethazaine 0 + CAM 25 μg/ml) | growth of H. pylori (89-355, oxethazaine 0 + CAM 50 μg/ml) | growth of H. pylori (89-355, oxethazaine 0 + CAM 100 μg/ml) | growth of H. pylori (89-357, oxethazaine 0 + CAM 0.05 μg/ml) | growth of H. pylori (89-357, oxethazaine 0 + CAM 0.1 μg/ml) | growth of H. pylori (89-357, oxethazaine 0 + CAM 0.2 μg/ml) | growth of H. pylori (89-357, oxethazaine 0 + CAM 0.4 μg/ml) | growth of H. pylori (89-357, oxethazaine 0 + CAM 0.8 μg/ml) | growth of H. pylori (89-357, oxethazaine 0 + CAM 1.56 μg/ml) | growth of H. pylori (89-357, oxethazaine 0 + CAM 3.13 μg/ml) | growth of H. pylori (89-357, oxethazaine 0 + CAM 6.25 μg/ml) | growth of H. pylori (89-357, oxethazaine 0 + CAM 12.5 μg/ml) | growth of H. pylori (89-357, oxethazaine 0 + CAM 25 μg/ml) | growth of H. pylori (89-357, oxethazaine 0 + CAM 50 μg/ml) | growth of H. pylori (89-357, oxethazaine 0 + CAM 100 μg/ml) | growth of H. pylori (90-388, oxethazaine 0 + CAM 0.1 μg/ml) | growth of H. pylori (90-388, oxethazaine 0 + CAM 0.2 μg/ml) | growth of H. pylori (90-388, oxethazaine 0 + CAM 0.4 μg/ml) | growth of H. pylori (90-388, oxethazaine 0 + CAM 0.8 μg/ml) | growth of H. pylori (90-388, oxethazaine 0 + CAM 1.56 μg/ml) | growth of H. pylori (90-388, oxethazaine 0 + CAM 3.13 μg/ml) | growth of H. pylori (90-388, oxethazaine 0 + CAM 6.25 μg/ml) | growth of H. pylori (90-388, oxethazaine 0 + CAM 12.5 μg/ml) | growth of H. pylori (90-388, oxethazaine 0 + CAM 25 μg/ml) | growth of H. pylori (90-388, oxethazaine 0 + CAM 50 μg/ml) | growth of H. pylori (90-388, oxethazaine 0 + CAM 100 μg/ml) | growth of H. pylori (90-390, oxethazaine 0 + CAM 0.1 μg/ml) | growth of H. pylori (90-390, oxethazaine 0 + CAM 0.2 μg/ml) | growth of H. pylori (90-390, oxethazaine 0 + CAM 0.4 μg/ml) | growth of H. pylori (90-390, oxethazaine 0 + CAM 0.8 μg/ml) | growth of H. pylori (90-390, oxethazaine 0 + CAM 1.56 μg/ml) | growth of H. pylori (90-390, oxethazaine 0 + CAM 3.13 μg/ml) | growth of H. pylori (90-390, oxethazaine 0 + CAM 6.25 μg/ml) | growth of H. pylori (90-390, oxethazaine 0 + CAM 12.5 μg/ml) | growth of H. pylori (90-390, oxethazaine 0 + CAM 25 μg/ml) | growth of H. pylori (90-390, oxethazaine 0 + CAM 50 μg/ml) | growth of H. pylori (90-390, oxethazaine 0 + CAM 100 μg/ml) | growth of H. pylori (EH 12, oxethazaine 0 + CAM 0.05 μg/ml) | growth of H. pylori (EH 12, oxethazaine 0 + CAM 0.1 μg/ml) | growth of H. pylori (EH 12, oxethazaine 0 + CAM 0.2 μg/ml) | growth of H. pylori (EH 12, oxethazaine 0 + CAM 0.4 μg/ml) | growth of H. pylori (EH 12, oxethazaine 0 + CAM 0.8 μg/ml) | growth of H. pylori (EH 12, oxethazaine 0 + CAM 1.56 μg/ml) | growth of H. pylori (EH 12, oxethazaine 0 + CAM 3.13 μg/ml) | growth of H. pylori (EH 12, oxethazaine 0 + CAM 6.25 μg/ml) | growth of H. pylori (EH 12, oxethazaine 0 + CAM 12.5 μg/ml) | growth of H. pylori (EH 12, oxethazaine 0 + CAM 25 μg/ml) | growth of H. pylori (EH 12, oxethazaine 0 + CAM 50 μg/ml) | growth of H. pylori (EH 12, oxethazaine 0 + CAM 100 μg/ml) | growth of H. pylori (EH 13, oxethazaine 0 + CAM 0.024 μg/ml) | growth of H. pylori (EH 13, oxethazaine 0 + CAM 0.05 μg/ml) | growth of H. pylori (EH 13, oxethazaine 0 + CAM 0.1 μg/ml) | growth of H. pylori (EH 13, oxethazaine 0 + CAM 0.2 μg/ml) | growth of H. pylori (EH 13, oxethazaine 0 + CAM 0.4 μg/ml) | growth of H. pylori (EH 13, oxethazaine 0 + CAM 0.8 μg/ml) | growth of H. pylori (EH 13, oxethazaine 0 + CAM 1.56 μg/ml) | growth of H. pylori (EH 13, oxethazaine 0 + CAM 3.13 μg/ml) | growth of H. pylori (EH 13, oxethazaine 0 + CAM 6.25 μg/ml) | growth of H. pylori (EH 13, oxethazaine 0 + CAM 12.5 μg/ml) | growth of H. pylori (EH 13, oxethazaine 0 + CAM 25 μg/ml) | growth of H. pylori (EH 13, oxethazaine 0 + CAM 50 μg/ml) | growth of H. pylori (EH 13, oxethazaine 0 + CAM 100 μg/ml) | growth of H. pylori (strain 90-397, CAM 12.5 μg/ml, oxethazaine μg/ml: 100, 50, 25, 12.5, 6.25, 3.13, 0) | growth of H. pylori (strain 90-397, CAM 25 μg/ml, oxethazaine μg/ml: 100, 50, 25, 12.5, 6.25, 3.13, 0) | growth of H. pylori (strain 90-397, CAM 50 μg/ml, oxethazaine μg/ml: 100, 50, 25, 12.5, 6.25, 3.13, 0) | growth of H. pylori (strain 90-397, CAM 100 μg/ml, oxethazaine μg/ml: 100, 50, 25, 12.5, 6.25, 3.13, 0)
5 strains/: synergism, number of strains [1]
